Tested on: MeCP2−/y mice
Experiment: Survival and disease progression (Kaplan-Meier)
Type: in vivo, mouse
From the text: A. (1-3) IGF-1 reduces the frequency of bradycardia in MeCP2 null mice. Pooled heart rate distributions observed across mice from different treatments, in beats per minute (bpm). The Y axis depicts the percent of observations within an experimental group that exceed a given bpm value (X axis). Comparisons are between 8 week old animals (WT or KO), some of which received (1-3)IGF-1 treatment for 6 weeks (KO-T). The KO distribution (pink) was left-shifted compared to the wild-type distribution (black), indicating a significant reduction in the distribution of heart rates. […] B. (1-3)IGF-1 treatment improves locomotor function in MeCP2 null mice. Baseline nocturnal activity was measured by placing animals in cages equipped with a movement detector (infrared beam). […] “N”=number of animals per group. C. (1-3)IGF-1 treated MeCP2 KO mice have longer life expectancy than vehicle treated controls. Kaplan-Meier survival curves for MeCP2-/y mice treated with vehicle (KO, red line) or (1-3)IGF-1 (KO-T, green line). […] MeCP2-/y mice were given daily IP injections of (1-3)IGF-1 (0.01 mg/g body weight/day) every day from 2 weeks of age onward. “n” is the number of mice per experimental group. (1-3)IGF-1 treatment: For the survival measurements, the nocturnal activity analysis and the immunoblot analysis, (1-3) IGF-1 (Bachem Biosciences # H22468) was administered daily via intra-peritoneal injections (0.01 mg/g body weight, vehicle=saline, 0.01% BSA). The treatment was started at P15 and maintained throughout the course of the experiments. For intracellular physiology experiments, the mice were injected daily (0.01 mg/g body weight, vehicle=saline, 0.01% BSA) for 2 weeks, from P15 to P28-P32 when they were used for acute slice preparation. For optical imaging experiments, mice were injected with (1-3) IGF-1 (0.02 mg/g body weight, vehicle=saline, 0.01% BSA) daily from the day of the lid suture to the day of imaging. Slice physiology preparation: Coronal sections (300 μm thick) at or near sensorimotor cortex were cut in <4° C. ACSF using a Vibratome. Slices were incubated at 37° C. for 20 minutes after slicing, and at room temperature for the remainder of the experiment. Slices were transferred to a Warner chamber and recordings were taken from visually identified pyramidal neurons located in layer 5. […] Cells were visualized with an Achroplan 40× water-immersion lens with infrared-DIC optics (Zeiss) and detected with an infrared camera (Hamamatsu) projecting to a video monitor. […] Then in current clamp 10 pulses (500 ms, 40-140 pA at 10 pA increments), were applied to quantify evoked firing rates and cellular excitability. […]

## NCC(=O)N1CCC[C@H]1C(=O)N[C@@H](CCC(=O)O)C(=O)O [(1-3)IGF-1, glycyl-L-prolyl-L-glutamic acid]
KO-T vs vehicle treated littermates, P=0.54*10^−7, log rank test
  life expectancy, Kaplan-Meier survival curves (FIG. 4C): significantly longer life expectancy
MeCP2−/y mice treated vs MeCP2 KO littermates, 0.01 mg/g body weight/day IP from 2 weeks of age
  increase in life expectancy: ~50%
MeCP2−/y mice treated, untreated KO ~60 days
  0.5 probability survival: 90 days
Treated MeCP2 knockout mice vs controls
  age at which symptoms develop: at the same age as controls
